According to patent US20250340510A1, “Substituted Phenylbenzenesulfonamide Derivatives and Uses Thereof” (Nine Square Therapeutics Corporation, priority 2022, published 2025):

Tests used:
TRPML1 = TRPML1 (Homo sapiens, UniProt Q9GZU1); assay: Calcium flux in HEK293 overexpressing TRPML1 plasma membrane variant (FLIPR, Calcium 6 dye); format: cell-based; conditions: HEK293/TRPML1-PM clone A5 cells; 4-parameter logistic fit; read-out: TRPML1 calcium flux (FLIPR) dose response: EC50
Text: Example B1. Calcium Flux in HEK293 Overexpressing TRPML1 Plasma Membrane Variant—Calcium 6 Dye
Cells: HEK293/TRPML1-PM clone A5, clonal cell line containing mutant TRPML1 (both N- and C-terminal dileucine targeting motifs deleted) that localizes to the plasma membrane
Plates: Perkin Elmer Viewplate cat. #6007460, black optically clear, tissue culture treated 384-well plate
Calcium dye: Molecular Devices FLIPR Calcium 6 Assay Kit, cat. #R8190 or Fluo-4 Direct from Thermo Fisher, cat. #F10471
Tips: Molecular Devices 384-well FLIPR Tetra black tips, cat. #9000-0764 Example B1.2 Method
HEK293/TRPML1-PM clone A5 cells were trypsinized from flasks, counted, then diluted in media to 15,000 cells per 25 μL, and seeded into a black, 384-well viewplate, and cultured overnight.
One vial of calcium 6 dye was diluted with 10 mL of assay buffer (HBSS+20 mM HEPES pH 7.4) and 25 μL of the dilution was added per well to the cells.
After incubating for 2 hours at 37° C., the plate was moved to the FLIPR in the read position.
The compounds were diluted in EMEM with 0.125% FBS to 5× concentration and loaded in a 384-well plate according to the desired plate map for the assay, including DMSO alone and carbachol controls, then the plate was moved to the FLIPR in the source 2 position.
A box of tips was placed in the source 1 position within the FLIPR to complete the assay set up.
Once the run was started, an initial baseline fluorescent measurement was performed for 10 seconds (470-495 nm excitation and 515-575 nm emission) prior to adding the compounds.
12.5 μL of 5× test compound, DMSO alone, or carbachol were added via the FLIPR and real-time fluorescence measurements were performed for an additional 170 seconds with 1 read per second.
The data was normalized to baseline by calculating maximum fluorescence minus minimum fluorescence and plotted as response (fold) over the baseline versus log ([…] concentration). The EC50 was determined using a 4-parameter logistic curve fit in Graphpad Prism 9.

TFEB = TFEB translocation assay in HeLa cells (nuclear to cytoplasmic TFEB ratio, high-content imaging); format: cell-based; conditions: Homo sapiens, HeLa, 1.5 h, 90 mins incubation at 37° C., ratio of nuclear to cytoplasmic TFEB
Experimental: Example B2. TFEB Translocation Assay
Rabbit TFEB antibody, Cell Signaling Technology #4240S
PFA 16% MeOH-free, Election Microscopy Sciences #50-980-487
HCS CellMask Deep Red, ThermoFisher Scientific #H32721
Plates: Perkin Elmer Phenoplate #605730 black optically clear, tissue culture treated 384-well plate
Example B2.2 Method, Day 1: Cells Seeded in 384WP
Cells were seeded in the afternoon. The outer one row of the plate was not used to avoid outer well edge effects.
HeLa cells were detached using trypsin, and the cells were counted using a cell counter.
4000 HeLa cells were seeded per well in […] growth media (DMEM with 10% FBS, 1 mM sodium pyruvate and Pen-Strep).
Example B2.3 Method, Day 2: Assay with TRPML1 Compounds+Staining
Compounds were added to cells using a Tecan D300e dispenser.
Cells were incubated for 90 mins at 37° C. with the compounds (compound range: 80 nM-[…] (2× step dilution—8 dilution steps, 3 replicates per condition)
The cells were fixed by adding 16.5 μL of 16% PFA (4% final) and incubating for 15 min at room temperature.
The cells were washed with 3× in PBS-TX (PBS+0.1% Triton X-100)−1×100 μL followed by 2×50 μL.
The cells were blocked and permeabilized in 30 μL of blocking buffer (PBS-TX+5% goat serum) for 1 h.
The cells were incubated with TFEB antibody (1:200, CST 4240S) in 30 μL blocking buffer overnight at 4° C. The plates were kept damp to avoid evaporation.
Example B2.4 Method, Day 3: Staining+Imaging
The cells were washed 3× in PBS-TX—3×100 μL with a Biotek EL406 washer.
The cells were incubated with Goat anti-Rb Alexa-Fluor 488 (1:2000), cell mask (1:10,000) and Hoechst (1:10,000) in 30 μL blocking buffer for 1 h at room temperature. The solution was dispensed using a 5 μL peristaltic cassette (EL406).
The cells were washed 3× in PBS-TX—3×100 μL with a EL406 washer, then […] PBS was dispensed using a 5 μL peristaltic cassette (EL406).
The cells were imaged on an Operetta CLS High-content imaging system using a 20× water immersion objective (NA 1.0) the same day.
Image analysis was performed using Harmony V4.9 (Perkin Elmer). Briefly, nuclei were segmented from background-corrected images using Hoechst intensity, and cell body segmented using HCS CellMask DeepRed. A sliding parabola filter was applied to the AlexaFluor 488 channel (TFEB), before sum pixel intensity in the nuclear and cytoplasmic regions was calculated. A ratio of nuclear to cytoplasmic TFEB was used to define TFEB translocation from the cytosolic to nuclear compartment. The EC50 values derived by fitting the data to a sigmoidal dose response curve using Prism 9 (Graphpad).

Sequence of TRPML1 (Q9GZU1 17-572 limits assumed): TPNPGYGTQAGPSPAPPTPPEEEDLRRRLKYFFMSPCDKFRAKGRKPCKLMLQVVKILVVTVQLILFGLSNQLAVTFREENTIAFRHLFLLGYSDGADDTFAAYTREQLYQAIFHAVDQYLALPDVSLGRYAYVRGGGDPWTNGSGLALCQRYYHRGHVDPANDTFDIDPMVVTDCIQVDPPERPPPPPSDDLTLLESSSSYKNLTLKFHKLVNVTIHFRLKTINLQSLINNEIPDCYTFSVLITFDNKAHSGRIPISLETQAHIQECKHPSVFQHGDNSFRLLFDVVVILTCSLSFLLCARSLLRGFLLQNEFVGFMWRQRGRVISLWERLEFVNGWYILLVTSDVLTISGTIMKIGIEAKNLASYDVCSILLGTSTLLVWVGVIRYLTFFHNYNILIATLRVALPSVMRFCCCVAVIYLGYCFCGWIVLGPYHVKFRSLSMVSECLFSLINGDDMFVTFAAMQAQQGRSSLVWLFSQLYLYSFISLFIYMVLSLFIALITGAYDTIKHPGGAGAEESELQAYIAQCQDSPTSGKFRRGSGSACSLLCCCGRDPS

Row | Compound | EC50 (TRPML1) | EC50 (TFEB)
1 | CN(c1ccccc1NS(=O)(=O)c1ccc(S(=O)(=O)N(C)C)cc1)C1CCC(C)(C)C1 (stereo not drawn) [Compound 20, N1-(2-((3,3-dimethylcyclopentyl)(methyl)amino)phenyl)-N4,N4-dimethylbenzene-1,4-disulfonamide] | 260 nM | 270 nM
2 | CN(c1ccccc1NS(=O)(=O)c1ccc(S(=O)(=O)N(C)C)cc1)C1CCC(F)(F)C1 (stereo not drawn) [Compound 99, N1-(2-((3,3-difluorocyclopentyl) (methyl)amino)phenyl)-N4,N4-dimethylbenzene-1,4-disulfonamide] | 433 nM | 573 nM
3 | CN(c1ccccc1NS(=O)(=O)c1ccc(S(=O)(=O)N(C)C)cc1)C1CCOC1 (stereo not drawn) [Compound 18, N1,N1-dimethyl-N4-(2-(methyl(tetrahydrofuran-3-yl)amino)phenyl)benzene-1,4-disulfonamide] | 1140 nM | > 9900 nM
4 | Cc1cccc(NS(=O)(=O)c2ccc(S(=O)(=O)N(C)C)cc2)c1N(C)C1CCCCC1 [Compound 98, N1-(2-(cyclohexyl(methyl)amino)-3-methylphenyl)-N4,N4-dimethylbenzene-1,4-disulfonamide] | 46.6 nM | 117 nM
5 | CN(C)S(=O)(=O)c1ccc(S(=O)(=O)Nc2ccccc2N(C)[C@H]2CC[C@@H](C)CC2)cc1 [Compound 30, N1,N1-dimethyl-N4-(2-(methyl((1s,4s)-4-methylcyclohexyl)amino)phenyl)benzene-1,4-disulfonamide] | 360 nM | 1170 nM
6 | CN(Cc1cncs1)c1c(Cl)cccc1NS(=O)(=O)c1ccc(S(=O)(=O)N(C)C)cc1 [Compound 73, N1-(3-chloro-2-(methyl(thiazol-5-ylmethyl)amino)phenyl)-N4,N4-dimethylbenzene-1,4-disulfonamide] | 996 nM | 4850 nM
7 | CN(CC1CCCC1)c1ccccc1NS(=O)(=O)c1ccc(S(=O)(=O)N(C)C)cc1 [Compound 25, N1-(2-((cyclopentylmethyl)(methyl)amino)phenyl)-N4,N4-dimethylbenzene-1,4-disulfonamide] | 420 nM | 540 nM
8 | CN(CC1CCC1)c1ccccc1NS(=O)(=O)c1ccc(S(=O)(=O)N(C)C)cc1 [Compound 106, N1-(2-((cyclobutylmethyl)(methyl)amino)phenyl)-N4,N4-dimethylbenzene-1,4-disulfonamide] | 371 nM | 464 nM
9 | CN(CC12CC(C1)C2)c1ccccc1NS(=O)(=O)c1ccc(S(=O)(=O)N(C)C)cc1 [Compound 66, N1-(2-((bicyclo[1.1.1]pentan-1-ylmethyl)(methyl)amino)phenyl)-N4,N4-dimethylbenzene-1,4-disulfonamide] | 236 nM | 927 nM
10 | CN(CC1CCCCC1)c1ccccc1NS(=O)(=O)c1ccc(S(=O)(=O)N(C)C)cc1 [Compound 23, N1-(2-((cyclohexylmethyl)(methyl)amino)phenyl)-N4,N4-dimethylbenzene-1,4-disulfonamide] | 410 nM | 200 nM
11 | Cc1cc(CN(C)c2ccccc2NS(=O)(=O)c2ccc(S(=O)(=O)N(C)C)cc2)cc(C)n1 [Compound 48, N1-(2-(((2,6-dimethylpyridin-4-yl)methyl)(methyl)amino)phenyl)-N4,N4-dimethylbenzene-1,4-disulfonamide] | 7450 nM | 
12 | CN(c1cc(C(F)(F)F)ccc1NS(=O)(=O)c1ccc(S(=O)(=O)N(C)C)cc1)C1CCCCC1 [Compound 116, N1-(2-(cyclohexyl(methyl)amino)-4-(trifluoromethyl)phenyl)-N4,N4-dimethylbenzene-1,4-disulfonamide] | 1030 nM | 
13 | CCOCCCN(C)c1ccccc1NS(=O)(=O)c1ccc(S(=O)(=O)N(C)C)cc1 [Compound 113, N1-(2-((3-ethoxypropyl)(methyl)amino)phenyl)-N4,N4-dimethylbenzene-1,4-disulfonamide] | > 10000 nM | 
14 | Cc1cnn(C)c1CN(C)c1ccccc1NS(=O)(=O)c1ccc(S(=O)(=O)N(C)C)cc1 [Compound 80, N1-(2-(((1,4-dimethyl-1H-pyrazol-5-yl)methyl)(methyl)amino)phenyl)-N4,N4-dimethylbenzene-1,4-disulfonamide] | 5940 nM | 
15 | CN(CC1CCOCC1)c1ccccc1NS(=O)(=O)c1ccc(S(=O)(=O)N(C)C)cc1 [Compound 11, N1,N1-dimethyl-N4-(2-(methyl((tetrahydro-2H-pyran-4-yl)methyl)amino)phenyl)benzene-1,4-disulfonamide] | 2100 nM | 
16 | CCn1cnc(CN(C)c2ccccc2NS(=O)(=O)c2ccc(S(=O)(=O)N(C)C)cc2)c1 [Compound 44, N1-(2-(((1-ethyl-1H-imidazol-4-yl)methyl)(methyl)amino)phenyl)-N4,N4-dimethylbenzene-1,4-disulfonamide] | > 10000 nM | 
17 | CN(Cc1ccncc1)c1ccccc1NS(=O)(=O)c1ccc(S(=O)(=O)N(C)C)cc1 [Compound 8, N1,N1-dimethyl-N4-(2-(methyl(pyridin-4-ylmethyl)amino)phenyl) benzene-1,4-disulfonamide] | 3690 nM | 
18 | CN(Cc1cn(C)cn1)c1ccccc1NS(=O)(=O)c1ccc(S(=O)(=O)N(C)C)cc1 [Compound 59, N1,N1-dimethyl-N4-(2-(methyl((1-methyl-1H-imidazol-4-yl)methyl)amino)phenyl)benzene-1,4-disulfonamide] | 2240 nM | 
19 | COCCCCN(C)c1ccccc1NS(=O)(=O)c1ccc(S(=O)(=O)N(C)C)cc1 [Compound 33, N1-(2-((4-methoxybutyl)(methyl)amino)phenyl)-N4,N4-dimethylbenzene-1,4-disulfonamide] | 2740 nM | 
20 | CN(Cc1cnc2n1CCC2)c1ccccc1NS(=O)(=O)c1ccc(S(=O)(=O)N(C)C)cc1 [Compound 79, N1-(2-(((6,7-dihydro-5H-pyrrolo[1,2-a]imidazol-3-yl)methyl)(methyl)amino)phenyl)-N4,N4-dimethylbenzene-1,4-disulfonamide] | 28500 nM | 
21 | CN(C)CCN(C)c1ccccc1NS(=O)(=O)c1ccc(S(=O)(=O)N(C)C)cc1 [Compound 54, N1-(2-((2-(dimethylamino)ethyl)(methyl)amino)phenyl)-N4,N4-dimethylbenzene-1,4-disulfonamide] | > 10000 nM | 
22 | CN(c1ccccc1NS(=O)(=O)c1ccc(S(=O)(=O)N(C)C)cc1)C1CCNCC1 [Compound 22, N1,N1-dimethyl-N4-(2-(methyl(piperidin-4-yl)amino)phenyl)benzene-1,4-disulfonamide] | > 10000 nM | 
23 | Cc1ccc(NS(=O)(=O)c2ccc(S(=O)(=O)N(C)C)cc2)c(N(C)C2CCCCC2)c1 [Compound 35, N1-(2-(cyclohexyl(methyl)amino)-4-methylphenyl)-N4,N4-dimethylbenzene-1,4-disulfonamide] | 330 nM | 
